Data from PubChem BioAssay (NCI).
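These data come from cells grown in 96-well plates and exposed to compound for 48 hours at five concentrations. At the TGI there is no net growth.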

Experiments:
Assay in all cases: NCI anticancer screen, dose series, 48 h
MDA-MB-435 = system: MDA-MB-435
786-0 renal = system: 786-0 renal
MCF7 breast = system: MCF7 breast
NCI-H226 lung = system: NCI-H226 lung
SK-OV-3 ovarian = system: SK-OV-3 ovarian
OVCAR-5 ovarian = system: OVCAR-5 ovarian
SNB-75 CNS = system: SNB-75 CNS
EKVX NSCLC = system: EKVX NSCLC
MALME-3M melanoma = system: MALME-3M melanoma
LOX IMVI melanoma = system: LOX IMVI melanoma
A498 renal = system: A498 renal
RXF 393 renal = system: RXF 393 renal
SF-268 CNS = system: SF-268 CNS
HL-60(TB) leukemia = system: HL-60(TB) leukemia
KM12 colon = system: KM12 colon
MDA-MB-231 breast = system: MDA-MB-231 breast
SF-295 CNS = system: SF-295 CNS
IGROV1 ovarian = system: IGROV1 ovarian
TK-10 renal = system: TK-10 renal
SW-620 colon = system: SW-620 colon
HCT-116 colon = system: HCT-116 colon
HCT-15 colon = system: HCT-15 colon
CCRF-CEM leukemia = system: CCRF-CEM leukemia
K-562 leukemia = system: K-562 leukemia
UO-31 renal = system: UO-31 renal
MDA-N = system: MDA-N
DU-145 prostate = system: DU-145 prostate
U251 CNS = system: U251 CNS
MOLT-4 leukemia = system: MOLT-4 leukemia
NCI/ADR-RES ovarian = system: NCI/ADR-RES ovarian
PC-3 prostate = system: PC-3 prostate
COLO 205 colon = system: COLO 205 colon
SF-539 CNS = system: SF-539 CNS
HS 578T breast = system: HS 578T breast
M14 melanoma = system: M14 melanoma
SN12C renal = system: SN12C renal
T-47D breast = system: T-47D breast
SK-MEL-5 melanoma = system: SK-MEL-5 melanoma
SK-MEL-28 melanoma = system: SK-MEL-28 melanoma
SR leukemia = system: SR leukemia
ACHN renal = system: ACHN renal
UACC-62 melanoma = system: UACC-62 melanoma
UACC-257 melanoma = system: UACC-257 melanoma
NCI-H23 lung = system: NCI-H23 lung
CAKI-1 renal = system: CAKI-1 renal
SNB-19 CNS = system: SNB-19 CNS
SK-MEL-2 melanoma = system: SK-MEL-2 melanoma
BT-549 breast = system: BT-549 breast
RPMI-8226 leukemia = system: RPMI-8226 leukemia
NCI-H460 lung = system: NCI-H460 lung
HOP-62 NSCLC = system: HOP-62 NSCLC
OVCAR-3 ovarian = system: OVCAR-3 ovarian
OVCAR-8 ovarian = system: OVCAR-8 ovarian
HCC-2998 colon = system: HCC-2998 colon
NCI-H522 lung = system: NCI-H522 lung
A549 NSCLC = system: A549 NSCLC
OVCAR-4 ovarian = system: OVCAR-4 ovarian
HOP-92 NSCLC = system: HOP-92 NSCLC
HT29 colon = system: HT29 colon

SMILES: Oc1ccc2c(c1)CCc1c-2n(CCN2CCOCC2)c2ccc(O)cc12
- TGI (MDA-MB-435): > 100 µM
- TGI (786-0 renal): > 100 µM
- TGI (MCF7 breast): > 100 µM
- TGI (NCI-H226 lung): > 100 µM
- TGI (SK-OV-3 ovarian): > 100 µM
- TGI (OVCAR-5 ovarian): > 100 µM
- TGI (SNB-75 CNS): 78.1 µM
- TGI (EKVX NSCLC): > 100 µM
- TGI (MALME-3M melanoma): 75.6 µM
- TGI (LOX IMVI melanoma): > 100 µM
- TGI (A498 renal): 39.6 µM
- TGI (RXF 393 renal): > 100 µM
- TGI (SF-268 CNS): > 100 µM
- TGI (HL-60(TB) leukemia): > 100 µM
- TGI (KM12 colon): 52.9 µM
- TGI (MDA-MB-231 breast): > 100 µM
- TGI (SF-295 CNS): > 100 µM
- TGI (IGROV1 ovarian): 60.9 µM
- TGI (TK-10 renal): > 100 µM
- TGI (SW-620 colon): > 100 µM
- TGI (HCT-116 colon): > 100 µM
- TGI (HCT-15 colon): > 100 µM
- TGI (CCRF-CEM leukemia): > 100 µM
- TGI (K-562 leukemia): > 100 µM
- TGI (UO-31 renal): 34.9 µM
- TGI (MDA-N): > 100 µM
- TGI (DU-145 prostate): > 100 µM
- TGI (U251 CNS): > 100 µM
- TGI (MOLT-4 leukemia): > 100 µM
- TGI (NCI/ADR-RES ovarian): 48.3 µM
- TGI (PC-3 prostate): > 100 µM
- TGI (COLO 205 colon): > 100 µM
- TGI (SF-539 CNS): > 100 µM
- TGI (HS 578T breast): > 100 µM
- TGI (M14 melanoma): > 100 µM
- TGI (SN12C renal): > 100 µM
- TGI (T-47D breast): > 100 µM
- TGI (SK-MEL-5 melanoma): 39 µM
- TGI (SK-MEL-28 melanoma): > 100 µM
- TGI (SR leukemia): > 100 µM
- TGI (ACHN renal): 53 µM
- TGI (UACC-62 melanoma): 55.5 µM
- TGI (UACC-257 melanoma): > 100 µM
- TGI (NCI-H23 lung): 90.3 µM
- TGI (CAKI-1 renal): > 100 µM
- TGI (SNB-19 CNS): > 100 µM
- TGI (SK-MEL-2 melanoma): 70.9 µM
- TGI (BT-549 breast): > 100 µM
- TGI (RPMI-8226 leukemia): > 100 µM
- TGI (NCI-H460 lung): > 100 µM
- TGI (HOP-62 NSCLC): > 100 µM
- TGI (OVCAR-3 ovarian): > 100 µM
- TGI (OVCAR-8 ovarian): 57.1 µM

SMILES: CCCCNc1nc2ccccc2c2c1ncn2CC(C)C
- TGI (MDA-MB-435): > 100 µM
- TGI (786-0 renal): > 100 µM
- TGI (MCF7 breast): > 100 µM
- TGI (HCC-2998 colon): > 100 µM
- TGI (NCI-H226 lung): > 100 µM
- TGI (SK-OV-3 ovarian): > 100 µM
- TGI (OVCAR-5 ovarian): > 100 µM
- TGI (SNB-75 CNS): > 100 µM
- TGI (NCI-H522 lung): > 100 µM
- TGI (EKVX NSCLC): > 100 µM
- TGI (MALME-3M melanoma): > 100 µM
- TGI (LOX IMVI melanoma): > 100 µM
- TGI (A498 renal): > 100 µM
- TGI (RXF 393 renal): > 100 µM
- TGI (SF-268 CNS): > 100 µM
- TGI (HL-60(TB) leukemia): > 100 µM
- TGI (KM12 colon): > 100 µM
- TGI (MDA-MB-231 breast): > 100 µM
- TGI (SF-295 CNS): > 100 µM
- TGI (IGROV1 ovarian): > 100 µM
- TGI (TK-10 renal): > 100 µM
- TGI (SW-620 colon): > 100 µM
- TGI (HCT-116 colon): > 100 µM
- TGI (HCT-15 colon): > 100 µM
- TGI (CCRF-CEM leukemia): > 100 µM
- TGI (K-562 leukemia): > 100 µM
- TGI (UO-31 renal): > 100 µM
- TGI (MDA-N): > 100 µM
- TGI (A549 NSCLC): > 100 µM
- TGI (DU-145 prostate): > 100 µM
- TGI (U251 CNS): > 100 µM
- TGI (MOLT-4 leukemia): > 100 µM
- TGI (NCI/ADR-RES ovarian): > 100 µM
- TGI (PC-3 prostate): > 100 µM
- TGI (COLO 205 colon): > 100 µM
- TGI (SF-539 CNS): > 100 µM
- TGI (HS 578T breast): > 100 µM
- TGI (M14 melanoma): > 100 µM
- TGI (SN12C renal): > 100 µM
- TGI (OVCAR-4 ovarian): > 100 µM
- TGI (T-47D breast): > 100 µM
- TGI (SK-MEL-5 melanoma): > 100 µM
- TGI (SK-MEL-28 melanoma): > 100 µM
- TGI (SR leukemia): > 100 µM
- TGI (HOP-92 NSCLC): > 100 µM
- TGI (ACHN renal): > 100 µM
- TGI (UACC-62 melanoma): > 100 µM
- TGI (UACC-257 melanoma): > 100 µM
- TGI (NCI-H23 lung): > 100 µM
- TGI (CAKI-1 renal): > 100 µM
- TGI (SNB-19 CNS): > 100 µM
- TGI (SK-MEL-2 melanoma): > 100 µM
- TGI (HT29 colon): > 100 µM
- TGI (BT-549 breast): > 100 µM
- TGI (RPMI-8226 leukemia): > 100 µM
- TGI (NCI-H460 lung): > 100 µM
- TGI (HOP-62 NSCLC): > 100 µM
- TGI (OVCAR-3 ovarian): > 100 µM
- TGI (OVCAR-8 ovarian): > 100 µM
